Calls of active or inactive are those of the source. The calls are words filed in the database; no cut-off is given here.
How the values were obtained:
[1] = molecular target: RAC-alpha serine/threonine-protein kinase (Homo sapiens) (UniProt P31749); assay: Inhibition of AKT phosphorylation at Ser473 in human NCI-H2009 cells at 1.25 uM after 24 to 48 hrs by Western blot analysis; format: cell-based
[2] = molecular target: RAC-alpha serine/threonine-protein kinase (Homo sapiens) (UniProt P31749); assay: Inhibition of AKT phosphorylation at Ser473 in […] WBras1 cells at 1.25 uM after 4 hrs by Western blot analysis; format: cell-based
[3] = system: NCI-H2009; assay: Growth inhibition of human NCI-H2009 cells assessed as reduction in cell number after 2 days by flow cytometric analysis; format: functional, cell-based
[4] = system: NCI-H2009; assay: Growth inhibition of human NCI-H2009 cells assessed as reduction in cell number at 1.25 uM after 2 to 4 days by flow cytometric analysis; format: functional, cell-based
[5] = molecular target: RAC-alpha serine/threonine-protein kinase (Homo sapiens) (UniProt P31749); assay: Inhibition of AKT phosphorylation at Ser473 in […] WBras1 cells at 1.25 uM after 24 hrs by Western blot analysis; format: cell-based
[6] = molecular target: RAC-alpha serine/threonine-protein kinase (Homo sapiens) (UniProt P31749); assay: Inhibition of AKT phosphorylation at Ser473 in human NCI-H2009 cells at 2.5 uM after 1 to 4 hrs by Western blot analysis; format: cell-based
[7] = molecular target: RAC-alpha serine/threonine-protein kinase (Homo sapiens) (UniProt P31749); assay: Inhibition of AKT phosphorylation at Ser473 in […] WBras1 cells at 2.5 uM after 4 hrs by Western blot analysis; format: cell-based
[8] = molecular target: RAC-alpha serine/threonine-protein kinase (Homo sapiens) (UniProt P31749); assay: Inhibition of AKT phosphorylation at Ser473 in human NCI-H2009 cells at 2.5 uM after 24 to 48 hrs by Western blot analysis; format: cell-based
[9] = system: NCI-H2009; assay: Growth inhibition of human NCI-H2009 cells assessed as reduction in cell number at 2.5 uM after 2 to 4 days by flow cytometric analysis; format: functional, cell-based
[10] = molecular target: RAC-alpha serine/threonine-protein kinase (Homo sapiens) (UniProt P31749); assay: Inhibition of AKT phosphorylation at Ser473 in […] WBras1 cells at 2.5 uM after 24 hrs by Western blot analysis; format: cell-based
[11] = molecular target: RAC-alpha serine/threonine-protein kinase (Homo sapiens) (UniProt P31749); assay: Inhibition of AKT phosphorylation at Ser473 in human NCI-H2009 cells up to 10 uM after 4 hrs by Western blot analysis; format: cell-based
[12] = molecular target: RAC-alpha serine/threonine-protein kinase (Homo sapiens) (UniProt P31749); assay: Inhibition of AKT phosphorylation at Ser473 in human NCI-H2009 cells at 25 uM after 24 hrs by Western blot analysis; format: cell-based
[13] = molecular target: RAC-alpha serine/threonine-protein kinase (Homo sapiens) (UniProt P31749); assay: Inhibition of AKT phosphorylation at Ser473 in […] WBras1 cells at 25 uM after 24 hrs by Western blot analysis; format: cell-based
[14] = molecular target: RAC-alpha serine/threonine-protein kinase (Homo sapiens) (UniProt P31749); assay: Inhibition of AKT phosphorylation at Ser473 in […] WBras1 cells at 25 uM after 4 hrs by Western blot analysis; format: cell-based

RAC-alpha serine/threonine-protein kinase (Homo sapiens), sequence (P31749 whole entry): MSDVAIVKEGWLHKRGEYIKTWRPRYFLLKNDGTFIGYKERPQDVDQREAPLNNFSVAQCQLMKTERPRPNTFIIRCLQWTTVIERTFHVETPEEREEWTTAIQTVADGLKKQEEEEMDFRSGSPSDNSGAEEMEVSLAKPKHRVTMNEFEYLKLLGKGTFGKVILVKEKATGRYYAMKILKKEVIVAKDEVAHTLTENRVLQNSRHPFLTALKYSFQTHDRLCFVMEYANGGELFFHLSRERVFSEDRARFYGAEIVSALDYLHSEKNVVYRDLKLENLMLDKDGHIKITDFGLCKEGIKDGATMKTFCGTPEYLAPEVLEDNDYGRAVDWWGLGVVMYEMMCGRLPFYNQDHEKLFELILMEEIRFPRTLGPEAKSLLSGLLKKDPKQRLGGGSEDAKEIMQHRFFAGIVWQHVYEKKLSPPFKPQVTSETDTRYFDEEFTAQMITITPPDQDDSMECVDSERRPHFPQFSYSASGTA

| inhibition [1] | inhibition [2] | IC50 ([3]; NCI-H2009, 48 h) | inhibition [5] | inhibition [6] | inhibition [7] | inhibition [8] | inhibition [10] | inhibition [11] | inhibition [12] | inhibition [13] | inhibition [14] | SMILES | growth inhibition (GI) [3] | growth inhibition (GI) [4] | growth inhibition (GI) [9] |
| --- | --- | --- | --- | --- | --- | --- | --- | --- | --- | --- | --- | --- | --- | --- | --- |
| Active | Active | 200 nM | Active | Active |  |  |  |  |  |  |  | CCCCCCCCCCCCSC1=NCCCN1 | Dose-dependent effect | Active |  |
|  |  |  |  |  | Active | inactive | Active | inactive |  |  |  | CCCCCCCCCCCCSC(=NC)NC |  |  | Active |
|  |  |  |  |  |  |  |  |  | inactive | Active | Active | C=CCCCCCCCCC1OCCN1CC (stereo unspecified) |  |  | inactive |

From ChEMBL document CHEMBL4265884, “Discovery and biological activity of computer-assisted drug designed Akt pathway inhibitors” (Bioorg Med Chem Lett, 2018)
